Here are results for nine compounds from patent publication US6855730B2, “3-methylidenyl-2-indolinone modulators of protein kinase” (Sugen, Inc., priority 1998, dated 2005).

By pIC50 is commonly meant −log10 of the IC50, conventionally taken in molar units.

pIC50: −log10 of the molar value. A value given as a limit tells only on which side of the number the result lay.

The target of the assay is T1, 3T3 cell line genetically engineered to express human EGF-R (Homo sapiens, UniProt P00533).
T1 construct: expressed in transfected cells; host or cells: 3T3
Briefly: EGF-induced BrdU incorporation assay. The class given is cell-based. The note with it: read-out: BrdU EGF driven IC50. How it is done: The cellular/catalytic assays described herein are performed in an ELISA format. The general procedure is as follows: a compound is introduced to cells expressing the test kinase, either naturally or recombinantly, for a selected period of time after which, if the test kinase is a receptor, a ligand known to activate the receptor is added. The cells are lysed and the lysate is transferred to the wells of an ELISA plate previously coated with a specific antibody recognizing the substrate of the enzymatic phosphorylation reaction. Non-substrate components of the cell lysate are washed away and the amount of phosphorylation on the substrate is detected with an antibody specifically recognizing phosphotyrosine compared with control cells that were not contacted with a test compound. The cellular/biologic assays described herein measure the amount of DNA made in response to activation of a test kinase, which is a general measure of a proliferative response. The general procedure for this assay is as follows: a compound is introduced to cells expressing the test kinase, either naturally or recombinantly, for a selected period of time after which, if the test kinase is a receptor, a ligand known to activate the receptor is added. After incubation at least overnight, a DNA labeling reagent such as Bromodeoxyuridine (BrdU) or 3H-thymidine is added. The amount of labeled DNA is detected with either an anti-BrdU antibody or by measuring radioactivity and is compared to control cells not contacted with a test compound. […]
Protocol • (1) Cells are seeded at 8000 cells/well in 10% CS, 2mM Gin in DMEM, in a 96 well plate. Cells are incubated overnight at 37° C. in 5% CO2. • (2) After 24 hours, the cells are washed with PBS, and then are serum starved in serum free medium (0% CS DMEM with 0.1% BSA) for 24 hours. • (3) On day 3, ligand (EGF, 2 nM, prepared in DMEM with 0.1% BSA) and test compounds are added to the cells simultaneously. The negative control wells receive serum free DMEM with 0.1% BSA only, the positive control cells receive the ligand (EGF) but no test compound. Test compounds are prepared in serum free DMEM with ligand in a 96 well plate, and serially diluted for 7 test concentrations. • (4) After 20 hours of ligand activation, diluted BrdU labeling reagent (1:100 in DMEM, 0.1% BSA) is added and the cells are incubated with BrdU (final concentration=10 μM) for 1.5 hours. • (5) After incubation with labeling reagent, the medium is removed by decanting and tapping the inverted plate on a paper towel. FixDenat solution is added (50 μl/well) and the plates are incubated at room temperature for 45 minutes on a plate shaker. • (6) The FixDenat solution is thoroughly removed by decanting and tapping the inverted plate on a paper towel. Milk is added (5% dehydrated milk in PBS, 200 μl/well) as a blocking solution and the plate is incubated for 30 minutes at room temperature on a plate shaker. • (7) The blocking solution is removed by decanting and the wells are washed once with PBS. Anti-BrdU-POD solution (1:100 dilution in PBS, 1% BSA) is added (100 μ/well) and the plate is incubated for 90 minutes at room temperature on a plate shaker. • (8) The antibody conjugate is thoroughly removed by decanting and rinsing the wells 5 times with PBS, and the plate is dried by inverting and tapping on a paper towel. • (9) TMB substrate solution is added (100 μl/well) and incubated for 20 minutes at room temperature on a plate shaker until color development is sufficient for photometric detection. • (10) The absorbance of the samples are measured at 410 nm (in “dual wavelength” mode with a filter reading at 490 nm, as a reference wavelength) on a Dynatech ELISA plate reader.
Turning to `COc1c(C(C)C)cc(/C=C2/C(=O)Nc3ccccc32)cc1C(C)C` [Example 1, 3-(3,5-Diisopropyl-4-methoxybenzylidene)-1,3-dihydroindol-2-one], the pIC50 is 5.18. With `COc1c(C(C)C)cc(/C=C2/C(=O)Nc3ccc(Cl)cc32)cc1C(C)C` [Example 2, 5-Chloro-3-(3,5-diisopropyl-4-methoxybenzylidene)-1,3-dihydroindol-2-one] the figure was 5.19; with `Cc1c[nH]c(/C=C2\C(=O)Nc3ccccc32)c1CCC(=O)O` [Example 215, 3-[4-Methyl-2-(2-oxo-1,2-dihydroindol-3-ylidenemethyl)-1H-pyrrol-3-yl]-propionic acid], under 4.00; with `Cc1c[nH]c(/C=C2\C(=O)Nc3ccc(Cl)cc32)c1CCC(=O)O` [Example 216, 3-[2-(5-Chloro-2-oxo-1,2-dihydroindol-3-ylidenemethyl)-4-methyl-1H-pyrrol-3-yl]-propionic acid], under 4.30.

As for `COc1ccc2c(c1)NC(=O)/C2=C\c1[nH]cc(C)c1CCC(=O)O` [Example 217, 3-[2-(6-Methoxy-2-oxo-1,2-dihydroindol-3-ylidenemethyl)-4-methyl-1H-pyrrol-3-yl]-propionic acid], the pIC50 was under 4.30.

Take `Cc1c[nH]c(/C=C2\C(=O)Nc3cccc(C)c32)c1CCC(=O)O` [Example 218, 3-[2-(4-Methyl-2-oxo-1,2-dihydroindol-3-ylidenemethyl)-4-methyl-1H-pyrrol-3-yl]-propionic acid]: the negative logarithm of the IC50 (pIC50) was 4.36. Then `Cc1c[nH]c(C=C2C(=O)Nc3cc(Cl)ccc32)c1CCC(=O)O` [Example 219, 3-[2-(6-Chloro-2-oxo-1,2-dihydroindol-3-ylidenemethyl)-4-methyl-1H-pyrrol-3-yl]-propionic acid], with under 4.30. With `Cc1c[nH]c(/C=C2\C(=O)Nc3ccc(Br)cc32)c1CCC(=O)O` [Example 220, 3-[2-(5-Bromo-2-oxo-1,2-dihydroindol-3-ylidenemethyl)-4-methyl-1H-pyrrol-3-yl]-propionic acid], the pIC50 is under 4.30. Then `COc1ccc2c(c1)/C(=C/c1[nH]cc(C)c1CCC(=O)O)C(=O)N2` [Example 222, 3-[2-(5-Methoxy-2-oxo-1,2-dihydroindol-3-ylidenemethyl)-4-methyl-1H-pyrrol-3-yl]-propionic acid], with under 4.30.
